Experimental data from patent publication EP0863156A1, “Peptides useful as somatostatin antagonists” (American Cyanamid Company, priority 1997, dated 1998).
Like-named read-outs stand apart in the source and are kept apart here. Square brackets hold non-standard residues; d marks the D form. Peptide text beside a SMILES is read from it.

How the values were obtained:
[1] = molecular target: T1, SRIF receptors (Rattus norvegicus, UniProt P30680); experiment: Yeast bioassay for SRIF antagonist activity (zone of growth inhibition of LY364 cells growing in response to SRIF); format: cell-based; settings: 10 µL of 5 mg/mL on filter disk, S-14 10 nM; for Yeast Assay (mm): Table III, diameter of zone of growth inhibition; for Inhibition Zone (mm): sample type 4th iteration, read after 3 days, compare only within same experiment
T1 construct: expressed in transfected cells; host or cells: Saccharomyces cerevisiae strain LY364
T1 sequence (P30680 whole entry): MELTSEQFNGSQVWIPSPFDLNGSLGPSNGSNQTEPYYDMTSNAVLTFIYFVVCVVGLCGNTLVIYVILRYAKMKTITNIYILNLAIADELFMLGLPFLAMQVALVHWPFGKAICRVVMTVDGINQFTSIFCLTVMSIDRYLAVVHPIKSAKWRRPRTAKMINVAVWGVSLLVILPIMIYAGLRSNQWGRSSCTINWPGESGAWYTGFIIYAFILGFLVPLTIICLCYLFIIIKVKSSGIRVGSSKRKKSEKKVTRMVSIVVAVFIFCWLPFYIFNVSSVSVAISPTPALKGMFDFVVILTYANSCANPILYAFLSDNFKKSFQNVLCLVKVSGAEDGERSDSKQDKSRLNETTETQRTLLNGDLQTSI
Description: Agar plates containing LY364 cells that are growing in the presence of added SRIF are the basis for a sensitive SRIF antagonist assay, whereby zones of growth inhibition result from the addition of SRIF antagonists to the surface of the agar plate (see L.A. Price, et al., Molecular and Cellular Biology, 15, 6188-6195, 1995, incorporated herein by reference).
In this assay, LY364 cells are grown overnight in 2 mL of synthetic complete(SC) medium (3.4 g/L YNB without amino acids and ammonium sulfate, 10 g/L ammonium sulfate and 1.4 g/L CSM-ura-trp) with glucose (2%) and without uracil and tryptophan. These cells are washed and cultured for 4 to 8 hours in 5 mL of SC medium with lactate (3%) and without uracil and tryptophan, and finally grown overnight in 5 mL of SC medium with galactose (2%) and without uracil and tryptophan. Molten (50° C) SC agar medium with galactose (2%) and without uracil, tryptophan and histidine is adjusted to pH 6.8 with KOH, mixed with 2 x 10^4 cells/mL and SRIF (S-14, 10 nM) and poured into square (20 x 20 cm) petri dishes. Sterile filter disks are placed on the surface of the agar, and saturated with 10 µL of water or DMSO containing 5 mg/mL test peptides. After three days, the plates display a uniform cloudy background of […] cells growing in response to the added SRIF. […] This zone is quantified by measuring its diameter (mm), which varies according to the potency of the SRIF antagonist. Those peptides or mixtures of peptides displaying the largest zones of inhibition are further characterized.
Values are compared among samples in the same experiment, as the degree of yeast growth varies somewhat from assay to assay. For the first five sample types, in which progressively less complex mixtures of peptides are found, this assay is the primary determining factor in choosing which samples form the basis of subsequent syntheses.
Plates are read after 3 days. Samples shown in Table I in bold type are chosen for further synthesis. In Table I, all amino acids are D-amino acids and dashes represent undefined amino acid residues.

[2] = molecular target: SSTR2 (Rattus norvegicus, UniProt P30680); experiment: cAMP accumulation in forskolin-stimulated GH4C1/SSTR2 cells (SPA radioimmunoassay); format: cell-based; design: expressed in transfected cells; host or cells: GH4C1 rat pituitary tumor cells; settings: for cAMP Assay Intrinsic activity / Emax: percent reversal of SSTR2 activation by SRIF or MK678, 0% = forskolin plus agonist, 100% = forskolin alone; for Emax: GH4-C1, read-out: cAMP Assay Intrinsic activity
SSTR2, sequence (P30680 whole entry): as above
Description: This is the basis of a common assay for SRIF agonists and antagonists, whereby SRIF agonists reduce artificially stimulated cAMP levels, and SRIF antagonists reverse the effect of SRIF. […] This increases the response to SRIF and provides a greater dynamic range for the measurement of SRIF antagonist activity.
Stimulation of cells. GH4C1/SSTR2 cells, grown in DMEM with 10% bovine serum, are released from a tissue culture dish by incubation for several minutes at 37° C with PBS containing 0.5 mM EDTA. Cells are washed in induction buffer (PBS containing 100 µM IBMX (an inhibitor of cAMP breakdown) and 2 mM CaCl2) at room temperature, and resuspended at 2 x 10^6/mL in induction buffer. Into each well of a 96-well tray are added 50 µL of a 2 X concentration of stimulants in induction buffer. […] To initiate stimulation of the cells, 50 µL (100,000) cells are added to each well, mixed by shaking 10 seconds on a plate shaker and placed at 37° C for 15 minutes. Stimulation is arrested and cells are lysed by adding 15 µL 0.33 N HCI to each well and incubating the plate for 30 minutes at 37° C. Samples are neutralized by addition of 15 µL 0.25 N NaOH/50 mM Hepes pH 7.4. Baseline cAMP levels are determined in samples with no added forskolin or SRIF, and each treatment is performed in triplicate.
cAMP assay. To measure accumulated cAMP in the samples, a radioimmunoassay is employed. The scintillation proximity assay (SPA, Amersham, Arlington Heights, IL) allows the rapid measurement of ^125I cAMP bound to a specific antibody without separating bound radioligand from free radioligand. Each of the following reagents (15 µL) are added per well in a 96-well tray: supernatants from the cell stimulation; ^125I cAMP; SPA beads conjugated to monkey anti-rabbit IgG antibodies; and rabbit anti-cAMP antibodies. For the standard curve, known amounts of cAMP (0.2 - 12.8 pmol) are added in place of cell supernatants. The 96-well tray is sealed, shaken at room temperature overnight and measured for bound radioligand in a MicroBeta liquid scintillation counter (Wallac, Gaithersburg. MD).
The intrinsic activity of an SRIF antagonist is the percent reversal of the SSTR2 activation by SRIF or MK678, wherein 0% is defined by cAMP levels in samples treated with forskolin plus SRIF or MK678 and 100% is the cAMP level measured after treatment with forskolin alone. Therefore, increased intrinsic activity of a test compound indicates increased antagonist activity of said test compound.
An inverse agonist is a compound that is not only a pure antagonist (i.e. lacking agonist activity), but also blocks the constitutive activity of an unoccupied receptor. One indication of inverse agonist activity is the ability of a SRIF antagonist to increase cAMP levels in the absence of added SRIF.

[3] = tested on: serum growth hormone (GH) levels; experiment: In vivo serum growth hormone levels in anaesthetized rats (radioimmunoassay); design: species or system Male Sprague-Dawley rats; settings: GRF 1 µg alone at 30 min
Description: Evaluation in anaesthetized rats. Male Sprague-Dawley rats are anaesthetized with Sagatal and fitted so as to allow efficient intravenous treatment with control and test compounds as well as frequent blood sampling. Blood samples are tested for growth hormone (GH) levels by radioimmunoassay. Thirty minutes after the initiation of blood sampling, rats are given 5 µg, 25 µg or 50 µg of peptide 1.
Peptide 1 is tested in combination with growth hormone releasing factor (GRF), to investigate whether said peptide may be mimicking the action of GRF. Anaesthetized rats are given GRF (1 µg) alone and in combination with peptide 1 (50 µg). […]

[4] = dose response of SRIF agonist upon cAMP levels in forskolin stimulated GH4C1/SSTR2 cells, agonist alone

Yeast Assay (mm) [1] | cAMP Assay Intrinsic activity ([2]; test peptide 2 µM) | Inhibition Zone (mm) [1] | Molecule | further results
20 mm | 71.2% | – | h-f-v-r-w-f [Peptide 28] | –
– | – | 13 mm | CC[C@@H](C)[C@@H](NC(=O)[C@@H](Cc1ccccc1)NC(=O)[C@@H](Cc1c[nH]cn1)NC(C)=O)C(=O)N[C@H](CCCNC(=N)N)C(=O)N[C@H](Cc1c[nH]c2ccccc12)C(=O)NCC(N)=O [His Phe Ile Arg Trp Gly] (Ac-[dH][dF][dI][dR][dW]G-NH2) | –
– | – | 16 mm | CC[C@@H](C)[C@@H](NC(=O)[C@@H](Cc1c[nH]c2ccccc12)NC(=O)[C@@H](CCCNC(=N)N)NC(=O)[C@H](NC(=O)[C@@H](Cc1ccccc1)NC(=O)[C@@H](Cc1c[nH]cn1)NC(C)=O)[C@H](C)CC)C(N)=O [Seq Id No. 21] (Ac-[dH][dF][dI][dR][dW][dI]-NH2) | –
– | – | – | CC[C@@H](C)[C@@H](NC(=O)[C@@H](Cc1ccccc1)NC(=O)[C@@H](Cc1c[nH]cn1)NC(C)=O)C(=O)N[C@H](CCCNC(=N)N)C(=O)NCC(=O)N[C@H](Cc1ccccc1)C(N)=O [Peptide 26, h-f-i-r-g-f] (Ac-[dH][dF][dI][dR]G[dF]-NH2) | Emax ([2]; test peptide 2 µM): 4.51%
– | – | 16 mm | CC[C@@H](C)[C@@H](NC(=O)[C@@H](Cc1ccccc1)NC(=O)[C@@H](Cc1c[nH]cn1)NC(C)=O)C(=O)N[C@H](CCCNC(=N)N)C(=O)N[C@H](Cc1c[nH]c2ccccc12)C(=O)N[C@H](CCC(N)=O)C(N)=O [Seq Id No. 26] (Ac-[dH][dF][dI][dR][dW][dQ]-NH2) | –
10 mm | 44.1% | – | h-f-i-a-w-f [Peptide 5] | –
20.5 mm | 71.2% | – | h-f-i-k-w-f [Peptide 27] | –
16 mm | 29.1% | – | h-f-i-r-w [Peptide 12] | –
9 mm | 6.36% | – | h-f-r-w-f [Peptide 9] | –
– | – | 15 mm | CC[C@@H](C)[C@@H](NC(=O)[C@@H](Cc1ccccc1)NC(=O)[C@@H](Cc1c[nH]cn1)NC(C)=O)C(=O)N[C@H](CCCNC(=N)N)C(=O)N[C@H](Cc1c[nH]c2ccccc12)C(=O)N[C@H](CC(N)=O)C(N)=O [Seq Id No. 23] (Ac-[dH][dF][dI][dR][dW][dN]-NH2) | –
14 mm | 12.1% | – | h-f-i-r-f [Peptide 11] | –
19 mm | 46.7% | – | h-f-i-r-w-F [Peptide 18] | –
9 mm | 9.71% | – | h-f-I-r-w-f [Peptide 15] | –
– | – | – | CC[C@@H](C)[C@@H](NC(C)=O)C(=O)N[C@H](CCCNC(=N)N)C(=O)N[C@H](Cc1c[nH]c2ccccc12)C(=O)N[C@H](Cc1ccccc1)C(=O)N[C@H](Cc1c[nH]cn1)C(=O)N[C@H](Cc1ccccc1)C(N)=O [Peptide 33, i-r-w-f-h-f] (Ac-[dI][dR][dW][dF][dH][dF]-NH2; N-terminus and C-terminus assumed) | Emax ([2]; test peptide 100 µM): 11.5%
none | 2.76% | – | h-i-r-w-f [Peptide 8] | –
– | – | 16 mm | CC[C@@H](C)[C@@H](NC(=O)[C@@H](Cc1ccccc1)NC(=O)[C@@H](Cc1c[nH]cn1)NC(C)=O)C(=O)N[C@H](CCCNC(=N)N)C(=O)N[C@H](Cc1c[nH]c2ccccc12)C(=O)N[C@H](Cc1ccc(O)cc1)C(N)=O [Seq Id No. 20] (Ac-[dH][dF][dI][dR][dW][dY]-NH2) | –
– | – | – | GRF: growth hormone releasing factor (GRF) [reference compound] | SGH ([3]; time 0 min (before dosing)): 11.2 ng/mL; SGH ([3]; time 15 min (before dosing)): 11.3 ng/mL; SGH ([3]; time 30 min (time of dose)): 8.4 ng/mL; SGH ([3]; time 35 min): 67.1 ng/mL; SGH ([3]; time 40 min): 103.5 ng/mL; SGH ([3]; time 45 min): 53.1 ng/mL
– | – | 15 mm | CC[C@@H](C)[C@@H](NC(=O)[C@@H](Cc1ccccc1)NC(=O)[C@@H](Cc1c[nH]cn1)NC(C)=O)C(=O)N[C@H](CCCNC(=N)N)C(=O)N[C@H](Cc1c[nH]c2ccccc12)C(=O)N[C@H](CC(C)C)C(N)=O [Seq Id No. 18] (Ac-[dH][dF][dI][dR][dW][dL]-NH2) | –
– | – | – | CC[C@@H](C)[C@@H](NC(=O)[C@@H](Cc1c[nH]c2ccccc12)NC(=O)[C@@H](Cc1c[nH]cn1)NC(C)=O)C(=O)N[C@H](CCCNC(=N)N)C(=O)N[C@H](Cc1ccccc1)C(=O)N[C@H](Cc1ccccc1)C(N)=O [Peptide 29, h-w-i-r-f-f] (Ac-[dH][dW][dI][dR][dF][dF]-NH2; N-terminus and C-terminus assumed) | Emax ([2]; test peptide 100 µM): 21.3%
– | – | 14 mm | CC[C@@H](C)[C@@H](NC(=O)[C@@H](Cc1ccccc1)NC(=O)[C@@H](Cc1c[nH]cn1)NC(C)=O)C(=O)N[C@H](CCCNC(=N)N)C(=O)N[C@H](Cc1c[nH]c2ccccc12)C(=O)N[C@@H](C(N)=O)[C@H](C)O [Seq Id No. 19] (Ac-[dH][dF][dI][dR][dW][dT]-NH2) | –
– | – | – | CC[C@@H](C)[C@@H](NC(=O)[C@@H](CCCNC(=N)N)NC(=O)[C@@H](Cc1c[nH]c2ccccc12)NC(=O)[C@@H](Cc1ccccc1)NC(=O)[C@@H](Cc1c[nH]cn1)NC(C)=O)C(=O)N[C@H](Cc1ccccc1)C(N)=O [Peptide 30, h-f-w-r-i-f] (Ac-[dH][dF][dW][dR][dI][dF]-NH2; N-terminus and C-terminus assumed) | Emax ([2]; test peptide 100 µM): 12.9%
– | – | 15 mm | CC[C@@H](C)[C@@H](NC(=O)[C@@H](Cc1ccccc1)NC(=O)[C@@H](Cc1c[nH]cn1)NC(C)=O)C(=O)N[C@H](CCCNC(=N)N)C(=O)N[C@H](Cc1c[nH]c2ccccc12)C(=O)N[C@H](C)C(N)=O [Seq Id No. 22] (Ac-[dH][dF][dI][dR][dW][dA]-NH2) | –
– | – | 18 mm | CC[C@@H](C)[C@@H](NC(=O)[C@@H](Cc1ccccc1)NC(=O)[C@@H](Cc1c[nH]cn1)NC(C)=O)C(=O)N[C@H](CCCNC(=N)N)C(=O)N[C@H](Cc1c[nH]c2ccccc12)C(=O)N[C@H](CCSC)C(N)=O [Seq Id No. 24] (Ac-[dH][dF][dI][dR][dW][dM]-NH2) | –
– | – | – | CC(C)[C@@H]1NC(=O)[C@H](CCCCN)NC(=O)[C@@H](Cc2c[nH]c3ccccc23)NC(=O)[C@H](Cc2ccc(O)cc2)NC(=O)[C@H](C)N(C)C(=O)[C@H](Cc2ccccc2)NC1=O [MK678, reference compound] | cAMP ([2]; Forskolin 1.25 µM + MK 678 10 nM, no Peptide 1 (forskolin alone 3.04; baseline 0.36)): 0.91 pM per 4 x 10^4 cells; EC50 [2, 4]: 143 pM; Maximum [2, 4]: 6.431; Minimum [2, 4]: 2.673
– | – | – | CC[C@@H](C)[C@H]1NC(=O)[C@@H](Cc2ccccc2)NC(=O)[C@@H](Cc2c[nH]cn2)NC(=O)[C@@H](Cc2ccccc2)NC(=O)[C@@H](Cc2c[nH]c3ccccc23)NC(=O)[C@@H](CCCNC(=N)N)NC1=O [Peptide 35, h-f-i-r-w-f] (cyclo([dH][dF][dI][dR][dW][dF])) | Emax ([2]; test peptide 100 µM): 122%
– | – | – | CC[C@@H](C)[C@@H](NC(=O)[C@@H](CCCNC(=N)N)NC(=O)[C@@H](Cc1ccccc1)NC(=O)[C@@H](Cc1c[nH]cn1)NC(C)=O)C(=O)N[C@H](Cc1c[nH]c2ccccc12)C(=O)N[C@H](Cc1ccccc1)C(N)=O [Peptide 31, h-f-r-i-w-f] (Ac-[dH][dF][dR][dI][dW][dF]-NH2; N-terminus and C-terminus assumed) | Emax ([2]; test peptide 100 µM): 13%
– | – | 16 mm | CC[C@@H](C)[C@@H](NC(=O)[C@@H](Cc1ccccc1)NC(=O)[C@@H](Cc1c[nH]cn1)NC(C)=O)C(=O)N[C@H](CCCNC(=N)N)C(=O)N[C@H](Cc1c[nH]c2ccccc12)C(=O)N[C@H](Cc1c[nH]c2ccccc12)C(N)=O [Seq Id No. 25] (Ac-[dH][dF][dI][dR][dW][dW]-NH2) | –
